From patent US20250243220A1, “ATR INHIBITORS” (APREA THERAPEUTICS, INC., priority 2022, published 2025)

How the values were obtained:
Type in all cases: cell-based
SKOV-3 = test: IC50 assay by Western blot (APH-treated cells), SKOV-3; details: SKOV-3 cells; for IC50: Homo sapiens, SK-OV-3
Description: (§1) E. Treatment of Cells for IC50 Assay by Western Blot
(§2) The compound is stored as a 1 mM stock solution prepared in accordance with the Receipt of Compound SOP. The stock solution is diluted in cell media in two separate 1:10 dilution series.
(§3) 1. Arrange twelve 15-mL centrifuge tubes in a rack in two series and label them in accordance with Dilutions Series 1 and Dilution Series 2 shown in Table 1 and Table 2, respectively.
(§4) 2. Place 2.5 mL of prewarmed cell media in each of the […]. Place 2.25 mL of prewarmed cell media in the remaining tubes.
(§5) 3. Add 7.5 μL of 1 mM compound stock solution in the 3 μM tube. Mix well.
(§6) 4. Add 2.5 μL of 1 mM compound stock solution in the 1 μM tube. Mix well.
(§7) 5. For each series (separately), remove 250 μL from the leftmost tube and transfer to the next tube to the right. Repeat for each tube until the series is complete.
(§8) 6. Set aside the 1 μM tube, the 3 μM tube, and the 300 nM tube for discard.
(§9) 7. The cells to be treated will be in 6-well plates labeled by cell line. Remove the cells from the incubator and label the wells with the dosages to be administered.
(§10) 8. Arrange the dilution tubes in the rack in a manner that reflects the 6-well plate arrangement so as to avoid confusion when administering the dosage solutions to the appropriate wells.
(§11) 9. Aspirate the three wells in the top row of the first plate (labeled NT, APH+, and APH+) and replace with 2 mL fresh media (without drug compound).
(§12) 10. Aspirate the three wells in the bottom row of the first plate and replace each well with 2 mL of solution from the appropriate tube.
(§13) 11. Repeat step 10 for the next row of wells (top row second plate). and then for the final row of wells (bottom row second plate).
(§14) 12. Place both plates into the incubator for 30 minutes.
(§15) 13. After 30 minutes have elapsed, remove the plates from the incubator.
(§16) 14. Acquire stock solution of APH (5 mM) and add 2 μL of the APH stock solution to the center of each well except the well labeled NT.
(§17) 15. Swirl the plates carefully and gently to diffuse the APH throughout each well.
(§18) 16. Place the plates back in the incubator for 4 hours, at which point the cells will be harvested for analysis.
(§19) 17. Twenty minutes before harvesting (or 3 hours and 40 minutes after administration of APH), turn on a heat block suitable to heat Eppendorf tubes. Set the temperature to 95° C.
(§20) 18. Set up a number of Eppendorf tubes equal to the number of wells treated (i.e., twelve per two-plate drug administration), and label each tube with cell line, compound administered, dosage level, and date. Leave the tubes open.
(§21) 19. Add 200 mL DI water to a beaker.
(§22) 20. After 4 hours, remove treated plates from incubator.
(§23) 21. Aspirate media from all wells.
(§24) 22. Wash each well with 2 mL 1×PBS and aspirate.
(§25) 23. Sterilize vacuum line with 70% ethanol by spraying some into the nozzle while the vacuum is engaged. Shut off vacuum.
(§26) 24. Add Laemmli buffer to each well. For HCT116 Bcl/xl, OVCAR-3, and 22RV1 cells, add 300 μL per well; for OVCAR-8 and SKOV-3 cells, add 250 μL per well.
(§27) 25. Scrape the first well thoroughly. Place the scraper into the DI water between uses.
(§28) 26. Transfer the lysed cell debris mixture to the first tube carefully. The mixture will be viscous. Use a 1000-μL pipettor. Close the tube.
(§29) 27. Repeat steps 25 and 26 for each well.
(§30) 28. When all wells have been harvested, place all the tubes into the heat block. Place a weighted, heat-resistant object on top of the tubes to keep them closed.
(§31) 29. After 5 minutes, remove the tubes from the heat block and turn it off. Vortex each tube for 10 seconds. Be cautious of tubes popping open.
(§32) 30. Allow the tubes to come to room temperature and proceed to further analysis or store frozen at −20° C.

HCT116 Bcl/xl = test: IC50 assay by Western blot (APH-treated cells), HCT116 Bcl/xl; details: for IC50: Homo sapiens, HCT-116
Description: as §1, §2, §3, §4, §5, §6, §7, §8, §9, §10, §11, §12, §13, §14, §15, §16, §17, §18, §19, §20, §21, §22, §23, §24, §25, §26, §27, §28, §29, §30, §31, §32

OVCAR-3 = test: IC50 assay by Western blot (APH-treated cells), OVCAR-3; details: OVCAR-3 cells; for IC50: Homo sapiens
Description: as §1, §2, §3, §4, §5, §6, §7, §8, §9, §10, §11, §12, §13, §14, §15, §16, §17, §18, §19, §20, §21, §22, §23, §24, §25, §26, §27, §28, §29, §30, §31, §32

22RV1 = test: IC50 assay by Western blot (APH-treated cells), 22RV1; details: 22RV1 cells; for IC50: Homo sapiens
Description: as §1, §2, §3, §4, §5, §6, §7, §8, §9, §10, §11, §12, §13, §14, §15, §16, §17, §18, §19, §20, §21, §22, §23, §24, §25, §26, §27, §28, §29, §30, §31, §32

MEC (+APH) = test: MEC (+APH)
OVCAR-8 = test: IC50 assay by Western blot (APH-treated cells), OVCAR-8; details: OVCAR-8 cells; for IC50: Homo sapiens
Description: as §1, §2, §3, §4, §5, §6, §7, §8, §9, §10, §11, §12, §13, §14, §15, §16, §17, §18, §19, §20, §21, §22, §23, §24, §25, §26, §27, §28, §29, §30, §31, §32

[1] = system: HCT Bcl/xl, OVCAR-3, OVCAR-8, SKOV-3, 22RV1 cell lines; test: Ave. IC50 across cell lines; details: average across cell lines

Compound	IC50 (SKOV-3)	PALD (Percent Activity at Lowest Dose tested) SKOV-3 (SKOV-3)	IC50 (HCT116 Bcl/xl)	PALD (Percent Activity at Lowest Dose tested) HCT Bcl/xl (HCT116 Bcl/xl)	IC50 (OVCAR-3)	PALD (Percent Activity at Lowest Dose tested) OVCAR-3 (OVCAR-3)	PALD (Percent Activity at Lowest Dose tested) 22RV1 (22RV1)	IC50 (22RV1)	minimal effective concentration (MEC (+APH))	IC50 (OVCAR-8)	PALD (Percent Activity at Lowest Dose tested) OVCAR-8 (OVCAR-8)	IC50 [1]
CNCc1cccc2c1OCCCCCCC(C)(O)CC(C)(C)S(=O)(=O)c1ccc(cc1)-c1cnc(N)c(n1)C(=O)N2 (racemic) [Compound A, 5-amino-22-hydroxy-22,24,24-trimethyl-13-(methylaminomethyl)-25,25-dioxo-15-oxa-25λ^6-thia-4,8,31-triazatetracyclo[24.2.2.1^2,6.0^9,14]hentriaconta-1(28),2(31),3,5,9(14),10,12,26,29-nonaen-7-one]	2.39 nM	(88%)	3.49 nM	(74%)	2.19 nM	(111%)	(73%)	8.28 nM	2e-05 µM	1.68 nM	(71%)	3.61 nM
CNCc1cccc2c1OCCCCCCC(C)(O)CC1(CC1)S(=O)(=O)c1ccc(cc1)-c1cnc(N)c(n1)C(=O)N2 (racemic) [Compound B, 5-amino-22-hydroxy-22-methyl-13-(methylaminomethyl)-25,25-dioxo-spiro[15-oxa-25λ^6-thia-4,8,31-triazatetracyclo[24.2.2.1^2,6.0^9,14]hentriaconta-1(28),2,4,6(31),9(14),10,12,26,29-nonaene-24,1′-cyclopropane]-7-one]	2.62 nM	(106%)	4.63 nM	(115%)	2.15 nM	(121%)	(141%)	2.99 nM	4e-05 µM	4.47 nM	(94%)	3.37 nM
CC1(C)C[C@@](C)(O)CCCCCCOc2c(CN)cccc2NC(=O)c2nc(cnc2N)-c2ccc(cc2)S1(=O)=O (single isomer, unassigned) [Compound C-1]			4.53 nM	(72%)	1.02 nM	(115%)	(107%)	3.5 nM	1e-05 µM	3.63 nM	(83%)	2.7 nM
CNCc1cccc2c1OCCCCCC[C@H](O)CC(C)(C)S(=O)(=O)c1ccc(cc1)-c1cnc(N)c(n1)C(=O)N2 (single isomer, unassigned) [Compound G-1]			7.77 nM	(115%)			(111%)	7.02 nM	4e-05 µM	4.97 nM	(85%)	
CNCc1cccc2c1OCCCCCC[C@@H](O)CC(C)(C)S(=O)(=O)c1ccc(cc1)-c1cnc(N)c(n1)C(=O)N2 (single isomer, unassigned) [Compound G-2]	4.94 nM	(92%)	7.9 nM	(83%)			(86%)	8.57 nM	4e-05 µM			
CC1(C)C[C@@H](O)CCCCCCOc2c(CN)cccc2NC(=O)c2nc(cnc2N)-c2ccc(cc2)S1(=O)=O (single isomer, unassigned) [Compound H-1]			4.46 nM	(89%)			(71%)	7.84 nM	4e-05 µM			
CC1(C)C[C@H](O)CCCCCCOc2c(CN)cccc2NC(=O)c2nc(cnc2N)-c2ccc(cc2)S1(=O)=O (single isomer, unassigned) [Compound H-2]			6.43 nM	(89%)					2e-05 µM			
CN(C)Cc1cccc2c1OCCCCCCC(C)(O)CC(C)(C)S(=O)(=O)c1ccc(cc1)-c1cnc(N)c(n1)C(=O)N2 (stereo not drawn) [Compound E, 5-amino-13-[(dimethylamino)methyl]-22-hydroxy-22,24,24-trimethyl-25,25-dioxo-15-oxa-25λ^6-thia-4,8,31-triazatetracyclo[24.2.2.1^2,6.0^9,14]hentriaconta-1(28),2,4,6(31),9(14),10,12,26,29-nonaen-7-one]			6.5 nM	(91%)			(72%)	3.28 nM	8e-05 µM	6.47 nM	(139%)	
CN(C)Cc1cccc2c1OCCCCCCC(C)(O)CC1(CC1)S(=O)(=O)c1ccc(cc1)-c1cnc(N)c(n1)C(=O)N2 (stereo not drawn) [Compound F, 5-amino-13-[(dimethylamino)methyl]-22-hydroxy-22-methyl-25,25-dioxo-spiro[15-oxa-25λ^6-thia-4,8,31-triazatetracyclo[24.2.2.1^2,6.0^9,14]hentriaconta-1(28),2,4,6(31),9(14),10,12,26,29-nonaene-24,1′-cyclopropane]-7-one]			14.1 nM	(104%)	8.23 nM	(86%)	(96%)	10.8 nM	0.000156 µM	31.5 nM	(81%)	
CN(C)Cc1cccc2c1OCCCCCCC(O)CC(C)(C)S(=O)(=O)c1ccc(cc1)-c1cnc(N)c(n1)C(=O)N2 (stereo not drawn) [Compound G, 5-amino-13-[(dimethylamino)methyl]-22-hydroxy-24,24-dimethyl-25,25-dioxo-15-oxa-25λ^6-thia-4,8,31-triazatetracyclo[24.2.2.1^2,6.0^9,14]hentriaconta-1(28),2(31),3,5,9(14),10,12,26,29-nonaen-7-one]	2.64 nM	(97%)	12.5 nM	(109%)	4.97 nM	(83%)	(104%)	5.09 nM	8e-05 µM			
